From patent US20240391931A1 (Bristol-Myers Squibb Company, priority 2021, published 2024)
Structures can show the parent of a compound that is named as a salt.

Tests used:
HER2 WT = molecular target: T1, HER2 WT (Homo sapiens, UniProt P04626); test: Enzymatic assay HER2 WT (method a); assay type: biochemical; details: [HER2 WT]=12.5 nM, [ATP]=25 μM, [Peptide 22]=1 μM
T1 construct: purchased ProQinase, Freiburg, Germany ERBB2 0108-0000-1
Method: A 2× stock solution of HER2 WT (ERBB2 0108-0000-1; ProQinase, Freiburg, Germany) corresponding to method a, was prepared as described below. Alternatively, a 2× stock solution of HER2YVMA (custom purification; Viva biotech, Shanghai, China) corresponding to method b, was prepared as described below. For method c, a 2× stock of EGFR (ERBB1 PR7295B, Thermo Fisher, Carlsbad, CA) was prepared as described below. All 2× solutions were prepared in buffer containing 50 mM HEPES, pH 7.5, 10 mM MnCl2, MgCl2, 0.005% Tween 20, 1 mM TCEP. 25 ul of 2× enzyme solution was added to a Seahorse low volume 384-well polypropylene assay plate (201288-100, Seahorse Bioscience, Chicopee, MA) containing 1 μl of compound serially diluted in 50% DMSO. To initiate the reaction, 25 μl of solution containing 2× final concentration of ATP and ProfilerPro Peptide 22 (760366, Perkin Elmer Hopkinton, MA) was added to each well. The reactions were separated on an LC3000 (Caliper Life Sciences) or a LabChip EZReader (Perkin Elmer) in kinetic mode.
At the conclusion of each assay, the data were exported from the instrument as a .rda file (LC3000) and processed in proprietary software, EZReviewer, which determines the percent of substrate converted to product within a given cycle as (P/P+S)*100 by measuring the amplitude of substrate and product peaks. Cycle time varied with amount of compounds tested between 8 and 12 cycles. Initial velocity (0-3600 s) from each reaction was determined from the slope of a plot of percent conversion at each cycle versus time (seconds). Percent inhibition was determined by dividing the slope of each reaction by the uninhibited control using 100*(1-(x/uninhibited control)). IC50 estimates were obtained by plotting the concentration of inhibitor versus percent inhibition in GraphPad Prism (GraphPad Software, San Diego, CA) using log[inhibitor] versus Response (Variable Slope Model); Y=Min+((Max-Min)/(1+((IC50/x)^Hillslope)))
• a) [HER2 WT]=12.5 nM, [ATP]=25 μM, [Peptide 22]=1 μM (ATP KMapp˜25 μM) • b) [HER2YVMA]=5 nM, [ATP]=25 μM, [Peptide 22]=1 μM (ATP KMapp˜15 μM) • c) [EGFR WT]=2 nM, [ATP]=1 mM, [Peptide 22]=1 μM (ATP KMapp˜25 μM)

[1] = molecular target: T2, HER2 wildtype (WT) protein (Homo sapiens, UniProt P04626); test: HER2 signaling (pHER2 Tyr1248/total HER2 MSD) in BT474 cells; assay type: cell-based; details: 1.5 hr compound, 1% FBS
T2 construct: BT474 and N87 cell lines which endogenously overexpress the HER2 wildtype (WT) protein; endogenous in cells; host or cells: BT474, N87
Method: In addition to the engineered cell lines, the following cell lines were used: BT474 (human breast carcinoma), N87 (human gastric carcinoma), NCI-H1781 (human lung adenocarcinoma), and A431 (human epidermoid carcinoma); all cell lines were obtained from the American Type Culture Collection (ATCC, Manassas, VA). NCI-H1781 were grown in complete RPMI 1640 (Life Technologies, Carlsbad, CA) supplemented with 15% fetal bovine serum (FBS, Life Technologies, Carlsbad, CA) and 1% Penicillin-Streptomycin (P/S, Life Technologies, Carlsbad, CA). N87 cells were grown in complete RPMI 1640 supplemented with 10% FBS and 1% P/S. BT474 and A431 cells were grown in DMEM (Life Technologies, Carlsbad, CA) supplemented with 10% FBS and 1% P/S. All cells were maintained and propagated in a humidified 5% CO2 incubator at 37° C.
HER2 signaling was assessed in BT474 and N87 cell lines which endogenously overexpress the HER2 wildtype (WT) protein, in NCI-H1781 cells which endogenously expresses a HER2 mutant protein containing a VC insertion in the kinase domain (HER2VC or G776delinsVC), and in engineered cell lines transduced to express the Her2 mutant protein containing the YVMA insertion (Hek293-HER2YVMA and BEAS2B-HER2YVMA).
BT474, N87, and NCI-H1781 were plated in 96-well tissue-culture treated plates (Corning Costar, Sigma-Aldrich) in full media and incubated overnight. Hek293-HER2YVMA and BEAS2B-HER2YVMA cells were plated in 96-well poly-D-lysine treated plates (BD Bioscience, San Jose, CA). For treatment with test compounds, the media was replaced with corresponding low serum media (1% FBS) containing test compound at 1.1, 0.37, 0.12, 0.041, 0.014, 0.005, 0.0014, 0.0005 μM or DMSO control (0.1%). Cells were incubated with compound for 1.5 hr at 37° C. After compound treatment, the media was removed and cells were lysed for 30 min on ice in complete MSD lysis buffer (prepared using MSD base lysis buffer (Meso-Scale Discovery) supplemented with cOmplete, EDTA-free Protease inhibitor cocktail (Roche), Phosphatase Inhibitor Cocktails 2 and 3 (Sigma-Aldrich), and 1 mM PMSF (Sigma-Aldrich)). Lysates were stored at −70° C. until further analysis.
HER2 signaling was evaluated using phospho (Tyr1248)/total ErbB2 whole cell lysate MSD plates (Meso-Scale Discovery, Gaithersburg, MD). The phospho HER2 signal was normalized to total HER2 for each sample; results are reported as % DMSO control. The normalized data was fitted using a sigmoidal curve analysis program (Graph Pad Prism version 6) with variable Hill slope to determine EC50 values.
The HER2 signaling results are provided in Table 4, under columns titled “BT474-pHER2 EC50”, “N87-pHER2 EC50”, and “NCI-H1781-pHER2 EC50”. Hek293-HER2YVMA ins fall under the heading “HEKYVMA-pHER2 EC50”, Ba/F3 HER2YVMA fall under the heading “Ba/F3 YVMA-pHER2 EC50” and BEAS2B-HER2YVMA fall under the heading “BEAS2B YVMA-pHER2 EC50”.

T2 sequence (P04626 23-1255): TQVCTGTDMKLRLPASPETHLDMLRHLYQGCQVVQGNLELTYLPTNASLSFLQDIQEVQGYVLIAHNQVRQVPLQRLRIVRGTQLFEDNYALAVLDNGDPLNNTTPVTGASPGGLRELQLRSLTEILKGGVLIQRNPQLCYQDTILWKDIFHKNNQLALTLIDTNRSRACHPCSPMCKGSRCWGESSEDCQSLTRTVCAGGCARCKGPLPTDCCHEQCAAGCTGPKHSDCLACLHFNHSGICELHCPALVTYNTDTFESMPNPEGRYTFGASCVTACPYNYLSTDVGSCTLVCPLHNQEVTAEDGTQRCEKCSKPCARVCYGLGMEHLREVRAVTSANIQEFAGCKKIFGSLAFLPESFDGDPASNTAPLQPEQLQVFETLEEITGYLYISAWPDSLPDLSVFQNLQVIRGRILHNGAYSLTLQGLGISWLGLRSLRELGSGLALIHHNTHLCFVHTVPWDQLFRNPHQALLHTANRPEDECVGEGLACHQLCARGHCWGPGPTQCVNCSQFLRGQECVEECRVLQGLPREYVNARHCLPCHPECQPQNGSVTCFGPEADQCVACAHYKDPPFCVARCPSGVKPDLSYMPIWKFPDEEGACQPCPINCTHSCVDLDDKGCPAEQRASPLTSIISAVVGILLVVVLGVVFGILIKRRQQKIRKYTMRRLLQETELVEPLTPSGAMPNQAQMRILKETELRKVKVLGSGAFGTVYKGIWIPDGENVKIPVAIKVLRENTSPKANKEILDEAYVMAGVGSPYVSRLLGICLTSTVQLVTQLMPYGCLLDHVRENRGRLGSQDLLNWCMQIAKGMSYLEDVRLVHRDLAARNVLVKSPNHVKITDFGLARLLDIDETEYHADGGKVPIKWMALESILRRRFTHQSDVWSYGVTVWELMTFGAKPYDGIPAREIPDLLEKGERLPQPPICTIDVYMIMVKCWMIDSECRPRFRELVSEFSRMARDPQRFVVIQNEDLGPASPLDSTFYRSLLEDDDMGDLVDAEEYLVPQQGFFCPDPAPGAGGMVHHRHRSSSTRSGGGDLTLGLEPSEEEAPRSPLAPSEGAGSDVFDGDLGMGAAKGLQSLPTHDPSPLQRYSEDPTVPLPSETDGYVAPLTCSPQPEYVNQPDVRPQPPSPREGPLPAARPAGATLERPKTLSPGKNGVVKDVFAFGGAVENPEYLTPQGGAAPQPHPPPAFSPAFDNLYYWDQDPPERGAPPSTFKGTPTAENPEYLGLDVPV
T1 sequence (P04626 23-1255): as above

SMILES	IC50 (HER2 WT) [nM]	EC50 [1] [nM]
Cc1ccc(Oc2ccc(Nc3ncnc4sc5c(c34)CCN(C(=O)/C=C/CN3CC4CCC3C4)C5)cc2C)cn1 (stereo not shown) [Compound 14]	< 100	< 100
Cc1ccc(Oc2ccc(Nc3ncnc4sc5c(c34)CCN(C(=O)/C=C/CN3CC4CC(C3)O4)C5)cc2C)cn1 [Compound 15]	< 100	< 100
Cc1ccc(Oc2ccc(Nc3ncnc4sc5c(c34)CCN(C(=O)/C=C/CN3CC4CCC(C4)C3)C5)cc2C)cn1 [Compound 16, (E)-4-(3-azabicyclo[3.2.1]octan-3-yl)-1-(4-((3-methyl-4-((6-methylpyridin-3-yl)oxy)phenyl)amino)-5,8-dihydropyrido[4′,3′:4,5]thieno[2,3-d]pyrimidin-7(6H)-yl)but-2-en-1-one benzenesulfonate salt]	< 100	< 100
Cc1ccc(Oc2ccc(Nc3ncnc4sc5c(c34)CCN(C(=O)/C=C/CN3CCOCC3)C5)cc2C)cn1 [Compound 17, (E)-1-(4-((3-Methyl-4-((6-methylpyridin-3-yl)oxy)phenyl)amino)-5,6-dihydropyrido[4′,3′:4,5]thieno[2,3-d]pyrimidin-7(8H)-yl)-4-morpholinobut-2-en-1-one]	< 100	< 100
O=C(/C=C/CN1CCOCC1)N1CCc2c(sc3ncnc(Nc4ccc(Oc5ccc6ncnn6c5)c(Cl)c4)c23)C1 [Compound 18]	< 100	< 100
Cc1cc(Nc2ncnc3sc4c(c23)CCN(C(=O)/C=C/CN(C)C)C4)ccc1Oc1ccc2scnc2c1 [Compound 107, (E)-1-(4-((4-(benzo[d]thiazol-5-yloxy)-3-methylphenyl)amino)-5,8-dihydropyrido[4′,3′:4,5]thieno[2,3-d]pyrimidin-7(6H)-yl)-4-(dimethylamino)but-2-en-1-one]	< 100	< 100
Cc1ccc(Oc2ccc(Nc3ncnc4sc5c(c34)CN(C(=O)/C=C/CN(C)C)CC5)cc2C)cn1 [Compound 108, (E)-4-(Dimethylamino)-1-(4-((3-methyl-4-((6-methylpyridin-3-yl)oxy)phenyl)amino)-7,8-dihydropyrido[3′,4′:4,5]thieno[2,3-d]pyrimidin-6(5H)-yl)but-2-en-1-one]	< 100	< 100
Cc1cc(Nc2ncnc3sc4c(c23)CCN(C(=O)/C=C/CN(C)C)C4)ccc1Oc1ccc2nccn2c1 [Compound 109, (E)-4-(dimethylamino)-1-(4-((4-(imidazo[1,2-a]pyridin-6-yloxy)-3-methylphenyl)amino)-5,6-dihydropyrido[4′,3′:4,5]thieno[2,3-d]pyrimidin-7(8H)-yl)but-2-en-1-one]	100 to 1000	< 100
Cc1cn2ccc(Oc3ccc(Nc4ncnc5sc6c(c45)CCN(C(=O)/C=C/CN(C)C)C6)cc3C)cc2n1 [Compound 110, (E)-4-(dimethylamino)-1-(4-((3-methyl-4-((2-methylimidazo[1,2-a]pyridin-7-yl)oxy)phenyl)amino)-5,8-dihydropyrido[4′,3′:4,5]thieno[2,3-d]pyrimidin-7(6H)-yl)but-2-en-1-one]	100 to 1000	< 100
Cc1cc(Nc2ncnc3sc4c(c23)CN(C(=O)/C=C/CN(C)C)C4)ccc1Oc1ccc2ncnn2c1 [Compound 111, (E)-1-(4-((4-([1,2,4]Triazolo[1,5-a]pyridin-6-yloxy)-3-methylphenyl)amino)-5H-pyrrolo[3′,4′:4,5]thieno[2,3-d]pyrimidin-6(7H)-yl)-4-(dimethylamino)but-2-en-1-one]	< 100	< 100
Cc1ccc(Oc2ccc(Nc3ncnc4sc5c(c34)CCN(C(=O)/C=C/CN3CCC[C@H](n4cccn4)C3)C5)cc2C)cn1 [Compound 112]	< 100	< 100
Cc1ccc(Oc2ccc(Nc3ncnc4sc5c(c34)CCN(C(=O)/C=C/CN3CCCC(c4nccs4)C3)C5)cc2C)cn1 (stereo not shown) [Compound 113]	< 100	< 100
Cc1ccc(Oc2ccc(Nc3ncnc4sc5c(c34)CCN(C(=O)/C=C/CN3CCC(O)C(C)(C)C3)C5)cc2C)cn1 (stereo not shown) [Compound 114]	< 100	< 100
Cc1ccc(Oc2ccc(Nc3ncnc4sc5c(c34)CCN(C(=O)/C=C/CN3CCCC34CCC4)C5)cc2C)cn1 [Compound 115]	< 100	< 100
Cc1ccc(Oc2ccc(Nc3ncnc4sc5c(c34)CCN(C(=O)/C=C/CN3CC(C)OC(C)C3C)C5)cc2C)cn1 (stereo not shown) [Compound 117]	< 100	< 100
Cc1ccc(Oc2ccc(Nc3ncnc4sc5c(c34)CCN(C(=O)/C=C/CN3CC4CC4(CO)C3)C5)cc2C)cn1 (stereo not shown) [Compound 118]	< 100	< 100
Cc1ccc(Oc2ccc(Nc3ncnc4sc5c(c34)CCN(C(=O)/C=C/CN3CCCCC3(C)CO)C5)cc2C)cn1 (stereo not shown) [Compound 119]	< 100	< 100
Cc1ccc(Oc2ccc(Nc3ncnc4sc5c(c34)CCN(C(=O)/C=C/CN3C[C@H]4C[C@@H]3CC4C#N)C5)cc2C)cn1 (stereo partly shown) [Compound 120]	< 100	< 100
Cc1ccc(Oc2ccc(Nc3ncnc4sc5c(c34)CCN(C(=O)/C=C/CN3CC(C)(C)OC(C)(C)C3)C5)cc2C)cn1 [Compound 121]	1000 to 10000	< 100
CC[C@H](NC/C=C/C(=O)N1CCc2c(sc3ncnc(Nc4ccc(Oc5ccc(C)nc5)c(C)c4)c23)C1)C(F)(F)F [Compound 122]	< 100	< 100
Cc1ccc(Oc2ccc(Nc3ncnc4sc5c(c34)CCN(C(=O)/C=C/CN3CC4(CCCC4)C3)C5)cc2C)cn1 [Compound 123]	< 100	< 100
Cc1ccc(Oc2ccc(Nc3ncnc4sc5c(c34)CCN(C(=O)/C=C/CN3CC[C@H](F)C3)C5)cc2C)cn1 [Compound 124]	< 100	< 100
Cc1cc(Nc2ncnc3sc4c(c23)CCN(C(=O)/C=C/CN(C)C)C4)ccc1Oc1ccn2ccnc2c1 [Compound 126, (E)-4-(dimethylamino)-1-(4-((4-(imidazo[1,2-a]pyridin-7-yloxy)-3-methylphenyl)amino)-5,8-dihydropyrido[4′,3′:4,5]thieno[2,3-d]pyrimidin-7(6H)-yl)but-2-en-1-one]	< 100	< 100
